# Measured values published in BindingDB's records for doi:10.1021/acs.jmedchem.5b01031 (Wayne State University, 2015).
# Experiments:
# D(2) dopamine receptor [1] = molecular target: T1, D(2) dopamine receptor (Homo sapiens, UniProt P14416); experiment: Antagonist activity against human D2 receptor expressed in CHO cells assessed as dopamine EC50 at 200 nM by [35S]GTPgammaS binding assay (Rvb = 225 +/- 45 nM)
# D(2) dopamine receptor [2] = molecular target: T1, D(2) dopamine receptor; experiment: Antagonist activity against human D2 receptor expressed in CHO cells assessed as dopamine EC50 at 1 uM by [35S]GTPgammaS binding assay (Rvb = 225 +/- 45 nM)
# T1 sequence (P14416 whole entry): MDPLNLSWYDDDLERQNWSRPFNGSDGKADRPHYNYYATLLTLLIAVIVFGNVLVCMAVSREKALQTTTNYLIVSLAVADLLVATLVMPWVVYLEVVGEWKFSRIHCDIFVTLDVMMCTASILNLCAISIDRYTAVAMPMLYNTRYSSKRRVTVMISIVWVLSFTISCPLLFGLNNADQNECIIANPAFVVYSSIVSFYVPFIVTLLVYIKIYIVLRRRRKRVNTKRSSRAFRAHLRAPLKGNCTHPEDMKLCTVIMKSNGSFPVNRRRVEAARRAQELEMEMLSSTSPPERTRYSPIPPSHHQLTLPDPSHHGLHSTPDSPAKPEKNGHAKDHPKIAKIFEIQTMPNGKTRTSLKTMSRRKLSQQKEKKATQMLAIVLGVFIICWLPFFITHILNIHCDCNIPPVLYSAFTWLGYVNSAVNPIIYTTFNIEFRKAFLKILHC
structure (smiles),measurement,setting,value
CCCN1CCC[C@@H](c2cccc(O)c2)C1 [Preclamol],EC50,D(2) dopamine receptor [1],0.376 µM
same,EC50,D(2) dopamine receptor [2],0.844 µM
